Source: ChEMBL document CHEMBL1268944, “The antiplasmodial activity of norcantharidin analogs” (Bioorg Med Chem Lett, 2010)

Experiments:
Plasmodium falciparum [1] = test: Antiplasmodial activity against chloroquine-resistant Plasmodium falciparum W2 assessed as inhibition of parasite LDH activity […] after 72 hrs by malstat reagent method; assay type: functional, organism-based; conditions: W2, 72 h
[2] = Inhibition of human PP2A
Plasmodium falciparum [3] = test: Antiplasmodial activity against chloroquine-sensitive Plasmodium falciparum D6 assessed as inhibition of parasite LDH activity after 72 hrs by malstat reagent method; assay type: functional, organism-based; conditions: D6, 72 h
[4] = Inhibition of human PP1
Homo sapiens [5] = species: Homo sapiens; test: Inhibition of human PP2A at 100 uM
Homo sapiens [6] = species: Homo sapiens; test: Inhibition of human PP1 at 100 uM
[7] = Solubility of the compound in PP2A assay medium at 40 mM; assay type: physicochemical; conditions: 40000 µM
[8] = Solubility of the compound in PP1 assay medium at 40 mM; assay type: physicochemical; conditions: 40000 µM
[9] = Inhibition of human PP1 expressed in Escherichia coli BL21
[10] = Inhibition of human PP2A expressed in Escherichia coli BL21

Row | SMILES | IC50 (Plasmodium falciparum [1]) | IC50 [2] | IC50 (Plasmodium falciparum [3]) | IC50 [4] | other results
1 | C#Cc1cccc(NC(=O)C2C(C(=O)O)[C@@H]3CC[C@H]2O3)c1 (some centres undefined) | 194 µM | 16 µM | 193 µM | 20 µM | 
2 | CCCCCCCCN1C(=O)C2C(C1=O)[C@H]1CC[C@@H]2O1 (some centres undefined) | 250 µM |  | 225 µM |  | 
3 | O=C(O)C1C(C(=O)Nc2cccc(I)c2)[C@H]2CC[C@@H]1O2 (some centres undefined) | 283 µM | 18 µM | 217 µM | 44 µM | 
4 | O=C(O)C1C(C(=O)Nc2ccc([N+](=O)[O-])cc2)[C@H]2CC[C@@H]1O2 (some centres undefined) | 393 µM | 23 µM | > 500 µM | 74 µM | 
5 | CCN1C(=O)C2C(C1=O)[C@H]1CC[C@@H]2O1 (some centres undefined) | > 500 µM |  | > 500 µM |  | 
6 | O=C(O)C1C(C(=O)Nc2ccc(CO)cc2)[C@H]2CC[C@@H]1O2 (some centres undefined) | 163 µM | 7.2 µM | 160 µM | 15 µM | 
7 | COc1ccc(CN2C(=O)C3C(C2=O)[C@H]2CC[C@@H]3O2)cc1 (some centres undefined) | 25 µM |  | 24 µM |  | 
8 | O=C(O)C1C(C(=O)N2CCSCC2)[C@H]2CC[C@@H]1O2 (some centres undefined) | 204 µM | 5.1 µM | 250 µM | 3.2 µM | 
9 | O=C(O)C1C(C(=O)NCc2ccc(F)c(F)c2)[C@H]2CC[C@@H]1O2 (some centres undefined) | > 500 µM | 26 µM | 473 µM | 26 µM | 
10 | O=C(O)C1C(C(=O)Nc2cccc(CO)c2)[C@H]2CC[C@@H]1O2 (some centres undefined) | 390 µM | 7 µM | 440 µM | 15 µM | 
11 | O=C1C2C(C(=O)N1C1CCCCC1)[C@H]1CC[C@@H]2O1 (some centres undefined) | 55 µM |  | 140 µM |  | 
12 | Nc1ccccc1CN1C(=O)C2C(C1=O)[C@H]1CC[C@@H]2O1 (some centres undefined) | > 500 µM |  | > 500 µM |  | 
13 | CCC(C)N1C(=O)C2C(C1=O)[C@H]1CC[C@@H]2O1 (some centres undefined) | 125 µM |  | 225 µM |  | 
14 | CSc1ccc(NC(=O)C2C(C(=O)O)[C@@H]3CC[C@H]2O3)cc1 (some centres undefined) | > 500 µM | 14 µM | > 500 µM | 10 µM | 
15 | CCCCCCN1C(=O)C2C(C1=O)[C@H]1CC[C@@H]2O1 (some centres undefined) | 90 µM |  | 175 µM |  | 
16 | CC(C)C[C@@H](C(=O)O)N1C(=O)C2C(C1=O)[C@H]1CC[C@@H]2O1 (some centres undefined) | > 500 µM |  | > 500 µM |  | 
17 | NCCCN1C(=O)C2C(C1=O)[C@H]1CC[C@@H]2O1 (some centres undefined) | > 500 µM |  | > 500 µM |  | 
18 | O=C(O)CCCNC(=O)C1C(C(=O)O)[C@@H]2CC[C@H]1O2 (some centres undefined) | > 500 µM | 3.3 µM | > 500 µM | 15 µM | 
19 | O=C(O)C1C(C(=O)Nc2cccc3ccccc23)[C@H]2CC[C@@H]1O2 (some centres undefined) | 193 µM |  | 210 µM |  | inhibition (Homo sapiens [5]): 73%; inhibition (Homo sapiens [6]): 79%
20 | Cc1cccc(NC(=O)C2C(C(=O)O)[C@@H]3CC[C@H]2O3)c1C (some centres undefined) | 220 µM |  | 260 µM |  | inhibition (Homo sapiens [5]): 62%; inhibition (Homo sapiens [6]): 84%

Row | SMILES | IC50 (Plasmodium falciparum [1]) | IC50 [2] | IC50 (Plasmodium falciparum [3]) | IC50 [4] | other results
21 | CCCCCCOc1ccc(NC(=O)C2C(C(=O)O)[C@@H]3CC[C@H]2O3)cc1 (some centres undefined) | 70 µM | 20 µM | 130 µM | 60 µM | 
22 | O=C(O)C1C(C(=O)NCCc2ccccc2)[C@H]2CC[C@@H]1O2 (some centres undefined) | 300 µM | 29 µM | 243 µM | 33 µM | 
23 | CCCCN1C(=O)C2C(C1=O)[C@H]1CC[C@@H]2O1 (some centres undefined) | 12.5 µM |  | 8.9 µM |  | 
24 | O=C(O)C1C(C(=O)NCCN2CCOCC2)[C@H]2CC[C@@H]1O2 (some centres undefined) | > 500 µM | 43 µM | > 500 µM | 30 µM | 
25 | CC(C)(C)c1ccc(C(C)(C)C)c(NC(=O)C2C(C(=O)O)[C@@H]3CC[C@H]2O3)c1 (some centres undefined) | 205 µM |  | 40 µM |  | solubility [7]: Insoluble; solubility [8]: Insoluble
26 | C=CCCNC(=O)C1C(C(=O)O)[C@@H]2CC[C@H]1O2 (some centres undefined) | > 500 µM |  | > 500 µM |  | solubility [7]: Insoluble; solubility [8]: Insoluble
27 | CC(CO)N1C(=O)C2C(C1=O)[C@H]1CC[C@@H]2O1 (some centres undefined) | > 500 µM |  | > 500 µM |  | 
28 | Cc1cccc(C)c1NC(=O)C1C(C(=O)O)[C@@H]2CC[C@H]1O2 (some centres undefined) | 290 µM |  | 306 µM |  | inhibition (Homo sapiens [5]): 24%; inhibition (Homo sapiens [6]): 68%
29 | CCCCNC(=O)C1C(C(=O)O)[C@@H]2CC[C@H]1O2 (some centres undefined) | > 500 µM | 24 µM | > 500 µM | 70 µM | 
30 | CCCCCCNC(=O)C1C(C(=O)O)[C@@H]2CC[C@H]1O2 (some centres undefined) | 390 µM | 13 µM | > 500 µM | 35 µM | 
31 | CCCN1C(=O)C2C(C1=O)[C@H]1CC[C@@H]2O1 (some centres undefined) | > 500 µM |  | > 500 µM |  | 
32 | O=C(O)[C@@H]1[C@H](C(=O)O)[C@H]2CC[C@@H]1O2 [ENDOTHALL] |  |  |  |  | IC50 [9]: 4 µM; IC50 [10]: 0.09 µM
33 | CSc1ccccc1NC(=O)C1C(C(=O)O)[C@@H]2CC[C@H]1O2 (some centres undefined) | > 500 µM |  | 340 µM |  | inhibition (Homo sapiens [5]): 58%; inhibition (Homo sapiens [6]): 76%
34 | O=C(O)C1C(C(=O)Nc2ccccc2)[C@H]2CC[C@@H]1O2 (some centres undefined) | 363 µM | 7.7 µM | 300 µM | 24 µM | 
35 | O=C(O)C1C(C(=O)Nc2ccc3ccccc3c2)[C@H]2CC[C@@H]1O2 (some centres undefined) | 257 µM | 15 µM | 280 µM | 14 µM | 
36 | CC(C)(C)c1ccccc1NC(=O)C1C(C(=O)O)[C@@H]2CC[C@H]1O2 (some centres undefined) | > 500 µM |  | > 500 µM |  | inhibition (Homo sapiens [5]): 16%; inhibition (Homo sapiens [6]): 9%
37 | O=C(O)C1C(C(=O)NCCc2cnc[nH]2)[C@H]2CC[C@@H]1O2 (some centres undefined) | 267 µM |  | 307 µM |  | inhibition (Homo sapiens [5]): 26%; inhibition (Homo sapiens [6]): 35%
38 | CCCNC(=O)C1C(C(=O)O)[C@@H]2CC[C@H]1O2 (some centres undefined) | > 500 µM | 18 µM | > 500 µM | 46 µM | 
39 | Cc1cc(C)c(NC(=O)C2C(C(=O)O)[C@@H]3CC[C@H]2O3)c(C)c1 (some centres undefined) | > 500 µM |  | 340 µM |  | inhibition (Homo sapiens [5]): 23%; inhibition (Homo sapiens [6]): 63%
40 | C=Cc1ccc(NC(=O)C2C(C(=O)O)[C@@H]3CC[C@H]2O3)cc1 (some centres undefined) | 400 µM | 11 µM | > 500 µM | 23 µM | 

Row | SMILES | IC50 (Plasmodium falciparum [1]) | IC50 [2] | IC50 (Plasmodium falciparum [3]) | IC50 [4] | other results
41 | CC(C)(CO)N1C(=O)C2C(C1=O)[C@H]1CC[C@@H]2O1 (some centres undefined) | > 500 µM |  | > 500 µM |  | 
42 | CCCCCCCCCCN1C(=O)C2C(C1=O)[C@H]1CC[C@@H]2O1 (some centres undefined) | 141 µM |  | 375 µM |  | 
43 | O=C(O)C1C(C(=O)Nc2ccccc2CO)[C@H]2CC[C@@H]1O2 (some centres undefined) | 333 µM |  | 275 µM |  | inhibition (Homo sapiens [5]): 30%; inhibition (Homo sapiens [6]): 84%
44 | O=C(O)C1C(C(=O)Nc2ccc(I)cc2)[C@H]2CC[C@@H]1O2 (some centres undefined) | 248 µM | 14 µM | 230 µM | 33 µM | 
45 | CC(C)(C)c1ccc(NC(=O)C2C(C(=O)O)[C@@H]3CC[C@H]2O3)cc1 (some centres undefined) | > 500 µM | 11 µM | 405 µM | 10 µM | 
46 | O=C1C2C(C(=O)N1N1CCOCC1)[C@H]1CC[C@@H]2O1 (some centres undefined) | > 500 µM |  | > 500 µM |  | 
47 | O=C(O)C1C(C(=O)Nc2ccccc2O)[C@H]2CC[C@@H]1O2 (some centres undefined) | 380 µM |  | 385 µM |  | inhibition (Homo sapiens [5]): 9.8%; inhibition (Homo sapiens [6]): 33%
48 | CCCCCOc1ccc(NC(=O)C2C(C(=O)O)[C@@H]3CC[C@H]2O3)cc1 (some centres undefined) | 333 µM | 15 µM | 110 µM | 11 µM | 
49 | CC(C)(C)c1cc(NC(=O)C2C(C(=O)O)[C@@H]3CC[C@H]2O3)cc(C(C)(C)C)c1 (some centres undefined) | 176 µM | 8.2 µM | 59.3 µM | 8.2 µM | 
50 | O=C(O)C1C(C(=O)Nc2ccc(O)cc2)[C@H]2CC[C@@H]1O2 (some centres undefined) | 333 µM | 7.7 µM | 265 µM | 28 µM | 
51 | CCc1ccccc1NC(=O)C1C(C(=O)O)[C@@H]2CC[C@H]1O2 (some centres undefined) | 400 µM | 24 µM | 360 µM | 51 µM | 
52 | O=C(O)C1C(C(=O)Nc2cccc(Cl)c2)[C@H]2CC[C@@H]1O2 (some centres undefined) | 185 µM | 14 µM | 250 µM | 31 µM | 
53 | O=C1C2C(C(=O)N1CCCCCCO)[C@H]1CC[C@@H]2O1 (some centres undefined) | > 500 µM |  | > 500 µM |  | 
54 | COc1ccc(CNC(=O)C2C(C(=O)O)[C@@H]3CC[C@H]2O3)cc1 (some centres undefined) | > 500 µM | 13 µM | > 500 µM | 35 µM | 
55 | CCCCCCCCCCCCNC(=O)C1C(C(=O)O)[C@@H]2CC[C@H]1O2 (some centres undefined) | 106 µM |  | 70 µM |  | solubility [7]: Insoluble; solubility [8]: Insoluble
56 | O=C1C2C(C(=O)N1CCN1CCOCC1)[C@H]1CC[C@@H]2O1 (some centres undefined) | > 500 µM |  | > 500 µM |  | 
57 | O=C(O)C1C(C(=O)NCCCc2ccccc2)[C@H]2CC[C@@H]1O2 (some centres undefined) | 230 µM | 25 µM | 383 µM | 25 µM | 
58 | O=C(O)CCCCCNC(=O)C1C(C(=O)O)[C@@H]2CC[C@H]1O2 (some centres undefined) | > 500 µM | 3.5 µM | 260 µM | 14 µM | 
59 | COc1ccc(NC(=O)C2C(C(=O)O)[C@@H]3CC[C@H]2O3)cc1 (some centres undefined) | > 500 µM | 16 µM | 500 µM | 16 µM | 
60 | O=C(O)C1C(C(=O)NCc2ccc(C(F)(F)F)cc2)[C@H]2CC[C@@H]1O2 (some centres undefined) | 433 µM | 20 µM | 248 µM | 16 µM | 
